Measured values from ChEMBL document CHEMBL1201861, “Genomics of Drug Sensitity in Cancer screening data, Wellcome Trust Sanger Institute”.

test system: Calu-6; assay: cells; assay type: functional, cell-based, Homo sapiens; settings: Homo sapiens, Calu-6;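 also: growth of human Calu-6 cells, read out by a cell viability assay, IC50 marking inhibition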
Description: SANGER: Inhibition of human Calu-6 cell growth in a cell viability assay.

IC50 [nM]	SMILES
887	CC(C)c1ccccc1Cc1cc(C(=O)Nc2ccc(S(=O)(=O)c3ccccc3C(C)(C)C)cc2)c(O)c(O)c1O

test system: D-247MG; assay: cells; assay type: functional, cell-based, Homo sapiens; settings: Homo sapiens, D-247MG
Description: SANGER: Inhibition of human D-247MG cell growth in a cell viability assay.

IC50 [nM]	SMILES
936	CC(C)c1ccccc1Cc1cc(C(=O)Nc2ccc(S(=O)(=O)c3ccccc3C(C)(C)C)cc2)c(O)c(O)c1O

test system: D-263MG; assay: cells; assay type: functional, cell-based, Homo sapiens; settings: Homo sapiens, D-263MG
Description: SANGER: Inhibition of human D-263MG cell growth in a cell viability assay.

IC50 [nM]	SMILES
283	CC(C)c1ccccc1Cc1cc(C(=O)Nc2ccc(S(=O)(=O)c3ccccc3C(C)(C)C)cc2)c(O)c(O)c1O

test system: EW-1; assay: cells; assay type: functional, cell-based, Homo sapiens; settings: Homo sapiens, EW-1;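 also: growth inhibition of the human EW-1 cell line, read out by a cell viability assay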
Description: SANGER: Inhibition of human EW-1 cell growth in a cell viability assay.

IC50 [nM]	SMILES
227	CC(C)c1ccccc1Cc1cc(C(=O)Nc2ccc(S(=O)(=O)c3ccccc3C(C)(C)C)cc2)c(O)c(O)c1O

test system: HEL; assay: cells; assay type: functional, cell-based, Homo sapiens; settings: Homo sapiens, HEL;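 also: growth inhibition of HEL cells, read out with a cell viability assay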
Description: SANGER: Inhibition of human HEL cell growth in a cell viability assay.

IC50 [nM]	SMILES
522	CC(C)c1ccccc1Cc1cc(C(=O)Nc2ccc(S(=O)(=O)c3ccccc3C(C)(C)C)cc2)c(O)c(O)c1O

test system: HT-144; assay: cells; assay type: functional, cell-based, Homo sapiens; settings: Homo sapiens, HT-144
Description: SANGER: Inhibition of human HT-144 cell growth in a cell viability assay.

IC50 [nM]	SMILES
152	CC(C)c1ccccc1Cc1cc(C(=O)Nc2ccc(S(=O)(=O)c3ccccc3C(C)(C)C)cc2)c(O)c(O)c1O

test system: HuTu80; assay: cells; assay type: functional, cell-based, Homo sapiens, HUTU-80; settings: Homo sapiens, HuTu80;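 also: growth inhibition of HuTu80 human cells, determined with a cell viability readout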
Description: SANGER: Inhibition of human HUTU-80 cell growth in a cell viability assay.

IC50 [nM]	SMILES
87	CC(C)c1ccccc1Cc1cc(C(=O)Nc2ccc(S(=O)(=O)c3ccccc3C(C)(C)C)cc2)c(O)c(O)c1O

test system: JAR; assay: cells; assay type: functional, cell-based, Homo sapiens; settings: Homo sapiens, JAR;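 also: growth inhibition of human JAR cells determined with a cell viability assay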
Description: SANGER: Inhibition of human JAR cell growth in a cell viability assay.

IC50 [nM]	SMILES
2.6	CC(C)c1ccccc1Cc1cc(C(=O)Nc2ccc(S(=O)(=O)c3ccccc3C(C)(C)C)cc2)c(O)c(O)c1O

test system: KM12; assay: cells; assay type: functional, cell-based, Homo sapiens; settings: Homo sapiens, KM12;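 also: KM12 cell growth inhibition, read out with a cell viability assay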
Description: SANGER: Inhibition of human KM12 cell growth in a cell viability assay.

IC50 [nM]	SMILES
1880	CC(C)c1ccccc1Cc1cc(C(=O)Nc2ccc(S(=O)(=O)c3ccccc3C(C)(C)C)cc2)c(O)c(O)c1O

test system: LB996-RCC; assay: cells; assay type: functional, cell-based, Homo sapiens; settings: Homo sapiens, LB996-RCC
Description: SANGER: Inhibition of human LB996-RCC cell growth in a cell viability assay.

IC50 [nM]	SMILES
250	CC(C)c1ccccc1Cc1cc(C(=O)Nc2ccc(S(=O)(=O)c3ccccc3C(C)(C)C)cc2)c(O)c(O)c1O

test system: LC-2-ad; assay: cells; assay type: functional, cell-based, Homo sapiens; settings: Homo sapiens, LC-2-ad;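 also: growth inhibition of human LC-2-ad cells, read out with a cell viability assay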
Description: SANGER: Inhibition of human LC-2-ad cell growth in a cell viability assay.

IC50 [nM]	SMILES
424	CC(C)c1ccccc1Cc1cc(C(=O)Nc2ccc(S(=O)(=O)c3ccccc3C(C)(C)C)cc2)c(O)c(O)c1O

test system: LNCaP-Clone-FGC; assay: cells; assay type: functional, cell-based, Homo sapiens; settings: Homo sapiens, LNCaP-Clone-FGC
Description: SANGER: Inhibition of human LNCaP-Clone-FGC cell growth in a cell viability assay.

IC50 [nM]	SMILES
535	CC(C)c1ccccc1Cc1cc(C(=O)Nc2ccc(S(=O)(=O)c3ccccc3C(C)(C)C)cc2)c(O)c(O)c1O

test system: MZ1-PC; assay: cells; assay type: functional, cell-based, Homo sapiens; settings: Homo sapiens, MZ1-PC;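 also: cell viability assay measuring growth inhibition of human MZ1-PC cells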
Description: SANGER: Inhibition of human MZ1-PC cell growth in a cell viability assay.

IC50 [nM]	SMILES
635	CC(C)c1ccccc1Cc1cc(C(=O)Nc2ccc(S(=O)(=O)c3ccccc3C(C)(C)C)cc2)c(O)c(O)c1O

test system: MZ7-mel; assay: cells; assay type: functional, cell-based, Homo sapiens; settings: Homo sapiens, MZ7-mel;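 also: growth inhibition of human MZ7-mel cells, measured by a cell viability assay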
Description: SANGER: Inhibition of human MZ7-mel cell growth in a cell viability assay.

IC50 [nM]	SMILES
1730	CC(C)c1ccccc1Cc1cc(C(=O)Nc2ccc(S(=O)(=O)c3ccccc3C(C)(C)C)cc2)c(O)c(O)c1O

test system: NB10; assay: cells; assay type: functional, cell-based, Homo sapiens; settings: Homo sapiens, NB10;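 also: growth inhibition of NB10 cells, read out by a cell viability assay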
Description: SANGER: Inhibition of human NB10 cell growth in a cell viability assay.

IC50 [nM]	SMILES
215	CC(C)c1ccccc1Cc1cc(C(=O)Nc2ccc(S(=O)(=O)c3ccccc3C(C)(C)C)cc2)c(O)c(O)c1O

test system: NB5; assay: cells; assay type: functional, cell-based, Homo sapiens; settings: Homo sapiens, NB5;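 also: growth inhibition of NB5 cells, read out as cell viability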
Description: SANGER: Inhibition of human NB5 cell growth in a cell viability assay.

IC50 [nM]	SMILES
423	CC(C)c1ccccc1Cc1cc(C(=O)Nc2ccc(S(=O)(=O)c3ccccc3C(C)(C)C)cc2)c(O)c(O)c1O

test system: NCI-H2126; assay: cells; assay type: functional, cell-based, Homo sapiens; settings: Homo sapiens, NCI-H2126;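 also: growth inhibition of the cancer cell line, determined with a cell viability readout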
Description: SANGER: Inhibition of human NCI-H2126 cell growth in a cell viability assay.

IC50 [nM]	SMILES
782	CC(C)c1ccccc1Cc1cc(C(=O)Nc2ccc(S(=O)(=O)c3ccccc3C(C)(C)C)cc2)c(O)c(O)c1O

test system: NCI-H226; assay: cells; assay type: functional, cell-based, Homo sapiens; settings: Homo sapiens, NCI-H226;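 also: cell viability read-out used to gauge growth inhibition of the cells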
Description: SANGER: Inhibition of human NCI-H226 cell growth in a cell viability assay.

IC50 [nM]	SMILES
2460	CC(C)c1ccccc1Cc1cc(C(=O)Nc2ccc(S(=O)(=O)c3ccccc3C(C)(C)C)cc2)c(O)c(O)c1O

test system: NH-12; assay: cells; assay type: functional, cell-based, Homo sapiens; settings: Homo sapiens, NH-12;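 also: growth inhibition of NH-12 cells, read out with a cell viability assay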
Description: SANGER: Inhibition of human NH-12 cell growth in a cell viability assay.

IC50 [nM]	SMILES
172	CC(C)c1ccccc1Cc1cc(C(=O)Nc2ccc(S(=O)(=O)c3ccccc3C(C)(C)C)cc2)c(O)c(O)c1O

test system: RXF 393; assay: cells; assay type: functional, cell-based, Homo sapiens; settings: Homo sapiens, RXF 393;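 also: growth inhibition of human RXF 393 cells, read out with a cell viability assay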
Description: SANGER: Inhibition of human RXF393 cell growth in a cell viability assay.

IC50 [nM]	SMILES
1210	CC(C)c1ccccc1Cc1cc(C(=O)Nc2ccc(S(=O)(=O)c3ccccc3C(C)(C)C)cc2)c(O)c(O)c1O

test system: SCH; assay: cells; assay type: functional, cell-based, Homo sapiens; settings: Homo sapiens, SCH;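 also: growth inhibition of human SCH cells, read out in a cell viability assay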
Description: SANGER: Inhibition of human SCH cell growth in a cell viability assay.

IC50 [nM]	SMILES
367	CC(C)c1ccccc1Cc1cc(C(=O)Nc2ccc(S(=O)(=O)c3ccccc3C(C)(C)C)cc2)c(O)c(O)c1O

test system: SJSA-1; assay: cells; assay type: functional, cell-based, Homo sapiens; settings: Homo sapiens, SJSA-1;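 also: growth inhibition of human SJSA-1 cells, read out through a cell viability measurement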
Description: SANGER: Inhibition of human SJSA-1 cell growth in a cell viability assay.

IC50 [nM]	SMILES
327	CC(C)c1ccccc1Cc1cc(C(=O)Nc2ccc(S(=O)(=O)c3ccccc3C(C)(C)C)cc2)c(O)c(O)c1O

test system: SK-LMS-1; assay: cells; assay type: functional, cell-based, Homo sapiens; settings: Homo sapiens, SK-LMS-1;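 also: growth inhibition of human SK-LMS-1 cells, read out with a cell viability assay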
Description: SANGER: Inhibition of human SK-LMS-1 cell growth in a cell viability assay.

IC50 [nM]	SMILES
272	CC(C)c1ccccc1Cc1cc(C(=O)Nc2ccc(S(=O)(=O)c3ccccc3C(C)(C)C)cc2)c(O)c(O)c1O

test system: SK-MEL-2; assay: cells; assay type: functional, cell-based, Homo sapiens; settings: Homo sapiens, SK-MEL-2;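 also: growth inhibition of human SK-MEL-2 cells measured with a cell viability assay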
Description: SANGER: Inhibition of human SK-MEL-2 cell growth in a cell viability assay.

IC50 [nM]	SMILES
230	CC(C)c1ccccc1Cc1cc(C(=O)Nc2ccc(S(=O)(=O)c3ccccc3C(C)(C)C)cc2)c(O)c(O)c1O

test system: SW684; assay: cells; assay type: functional, cell-based, Homo sapiens; settings: Homo sapiens, SW684;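 also: growth inhibition of human SW684 cells, measured by a cell viability assay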
Description: SANGER: Inhibition of human SW684 cell growth in a cell viability assay.

IC50 [nM]	SMILES
8830	CC(C)c1ccccc1Cc1cc(C(=O)Nc2ccc(S(=O)(=O)c3ccccc3C(C)(C)C)cc2)c(O)c(O)c1O

test system: A498; assay: cells; assay type: functional, cell-based, Homo sapiens; settings: Homo sapiens, A498;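 also: growth inhibition of human A498 cells, read out with a cell viability assay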
Description: SANGER: Inhibition of human A498 cell growth in a cell viability assay.

IC50 [nM]	SMILES
1490	CC(C)c1ccccc1Cc1cc(C(=O)Nc2ccc(S(=O)(=O)c3ccccc3C(C)(C)C)cc2)c(O)c(O)c1O

test system: ACN; assay: cells; assay type: functional, cell-based, Homo sapiens; settings: Homo sapiens, ACN;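 also: growth inhibition of the human ACN cell line, read out via cell viability testing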
Description: SANGER: Inhibition of human ACN cell growth in a cell viability assay.

IC50 [nM]	SMILES
696	CC(C)c1ccccc1Cc1cc(C(=O)Nc2ccc(S(=O)(=O)c3ccccc3C(C)(C)C)cc2)c(O)c(O)c1O

test system: AM-38; assay: cells; assay type: functional, cell-based, Homo sapiens; settings: Homo sapiens, AM-38;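 also: growth inhibition of AM-38 cells of human origin, read out by a cell viability assay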
Description: SANGER: Inhibition of human AM-38 cell growth in a cell viability assay.

IC50 [nM]	SMILES
841	CC(C)c1ccccc1Cc1cc(C(=O)Nc2ccc(S(=O)(=O)c3ccccc3C(C)(C)C)cc2)c(O)c(O)c1O

test system: BT-474; assay: cells; assay type: functional, cell-based, Homo sapiens; settings: Homo sapiens, BT-474
Description: SANGER: Inhibition of human BT-474 cell growth in a cell viability assay.

IC50 [nM]	SMILES
3870	CC(C)c1ccccc1Cc1cc(C(=O)Nc2ccc(S(=O)(=O)c3ccccc3C(C)(C)C)cc2)c(O)c(O)c1O

test system: Becker; assay: cells; assay type: functional, cell-based, Homo sapiens; settings: Homo sapiens, Becker;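 also: growth inhibition of Becker cells, read out with a cell viability assay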
Description: SANGER: Inhibition of human Becker cell growth in a cell viability assay.

IC50 [nM]	SMILES
242	CC(C)c1ccccc1Cc1cc(C(=O)Nc2ccc(S(=O)(=O)c3ccccc3C(C)(C)C)cc2)c(O)c(O)c1O

test system: TE-10; assay: cells; assay type: functional, cell-based, Homo sapiens; settings: Homo sapiens, TE-10;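 also: growth inhibition of TE-10 cells, measured by a cell viability assay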
Description: SANGER: Inhibition of human TE-10 cell growth in a cell viability assay.

IC50 [nM]	SMILES
1230	CC(C)c1ccccc1Cc1cc(C(=O)Nc2ccc(S(=O)(=O)c3ccccc3C(C)(C)C)cc2)c(O)c(O)c1O

test system: TE-6; assay: cells; assay type: functional, cell-based, Homo sapiens; settings: Homo sapiens, TE-6;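 also: growth inhibition of TE-6 cells, read out with a cell viability assay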
Description: SANGER: Inhibition of human TE-6 cell growth in a cell viability assay.

IC50 [nM]	SMILES
24500	CC(C)c1ccccc1Cc1cc(C(=O)Nc2ccc(S(=O)(=O)c3ccccc3C(C)(C)C)cc2)c(O)c(O)c1O

test system: TE-9; assay: cells; assay type: functional, cell-based, Homo sapiens; settings: Homo sapiens, TE-9;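 also: cell growth inhibition, measured with a cell viability readout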
Description: SANGER: Inhibition of human TE-9 cell growth in a cell viability assay.

IC50 [nM]	SMILES
225	CC(C)c1ccccc1Cc1cc(C(=O)Nc2ccc(S(=O)(=O)c3ccccc3C(C)(C)C)cc2)c(O)c(O)c1O

test system: U-87 MG; assay: cells; assay type: functional, cell-based, Homo sapiens, U-87MG ATCC; settings: Homo sapiens, U-87 MG;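 also: growth inhibition of the cells measured with a viability assay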
Description: SANGER: Inhibition of human U-87-MG cell growth in a cell viability assay.

IC50 [nM]	SMILES
82.2	CC(C)c1ccccc1Cc1cc(C(=O)Nc2ccc(S(=O)(=O)c3ccccc3C(C)(C)C)cc2)c(O)c(O)c1O

test system: UACC-257; assay: cells; assay type: functional, cell-based, Homo sapiens; settings: Homo sapiens, UACC-257
Description: SANGER: Inhibition of human UACC-257 cell growth in a cell viability assay.

IC50 [nM]	SMILES
552	CC(C)c1ccccc1Cc1cc(C(=O)Nc2ccc(S(=O)(=O)c3ccccc3C(C)(C)C)cc2)c(O)c(O)c1O
